Paper PMC9026109, “Enhancing the Anticancer Potential of Targeting Tumor-Associated Metalloenzymes via VEGFR Inhibition by New Triazolo[4,3-a]pyrimidinone Acyclo C-Nucleosides Multitarget Agents” (Molecules, 2022)
“And” between values parts separate entries of the source, which are not always exact repeats. Equal values may be shown once. Read-outs that look alike come from different tables or passages of the source.

Assays:
MDA-MB 231 = test: MTT anticancer activity, MDA-MB 231; assay type: cell-based, human; conditions: for IC50: Homo sapiens, MDA-MB 231, 72 h, MTT, mean ± SEM; for SI: ratio IC50 on normal cells (Wi-38) / IC50 on MDA-MB 231
Text: (§1) All derivatives were subjected to preliminary cytotoxicity screening on normal human lung fibroblasts (Wi-38) for selectivity assessment, followed by anticancer evaluation against MDA-MB231, Caco-2, and HepG-2 cells compared to the reference multitarget chemotherapeutic agent doxorubicin (Dox) by MTT assay. It is worth mentioning that previous studies reported that Dox inhibits the VEGF pathway which is the main anticancer target of the current study via various mechanisms.
(§2) The compounds’ cytotoxicity on normal and cancer cells was assayed by MTT as reported and detailed in the Supplementary Materials. […]
(§3) 2.1. Cytotoxicity screening on normal human lung fibroblasts (Wi-38)
(§4) The normal human lung fibroblast Wi-38 cell line was used to detect cytotoxicity of the studied compounds. Wi-38 cell line was cultured in DMEM medium-contained 10 % fetal bovine serum (FBS), seeded as 5x10^3 cells per well in 96-well cell culture plate, and incubated at 37 °C in 5 % CO2 incubator. After 24 h for cell attachment, serial concentrations (25-800 nM) of the synthetic compounds and currently used chemotherapy (doxorubicin) were incubated with Wi-38 cells for 72 h. Cell viability was assayed by the MTT method. Twenty microliters of 5 mg/ml MTT (Sigma, USA) were added to each well and the plate was incubated at 37 °C for 3 h. Then MTT solution was removed, 100 µl DMSO was added and the absorbance of each well was measured with a microplate reader (BMG LabTech, Germany) at 570 nm. Plot of Wi-38 cell […]
(§5) compounds (8 and 9) and the reference chemotherapy (Dox) is illustrated in figure 39-A. The effective […]
(§6) was estimated by the Graphpad Instat software. Additionally, morphology of Wi-38 before and after […]
(§7) microscope with a digital camera (Olympus, Japan).
(§8) 2.2. Determination of the anticancer activity
(§9) The anticancer effect of the above-mentioned compounds, in comparison with doxorubicin (Dox), was assayed using three human cancer cell lines. Colon cancer cell line (Caco-2) was cultured in DMEM (Lonza, USA) contained with 10 % FBS while liver cancer cell line (HepG-2) and triple-negative breast cancer cell line (MDA- MB 231) were cultured in RPMI-1640 (Lonza, U SA) supplemented with 10 % FBS. […] After 24h, serial concentrations (0.2-125 nM) of the tested compounds were incubated with three cancer cell lines for 72 h at 37 °C in a 5 % CO2 incubator. MTT method was done as described above. Plots of cancer cells viability (%) and growth inhibition (%) of the studied […]
(§10) illustrated in figure 39. […]
(§11) The half-maximal inhibitory concentration (IC50) values were calculated using the Graphpad Instat […]
(§12) safest anticancer compounds were investigated using phase-contrast inverted microscope with a digital […]
(§13) ratio of IC50 value of normal cells to IC50 value of each studied cancer cell lines.
(§14) Figure S40. Plot of (A) Wi-38 cell viability (%) and (B-D) growth inhibition (%) of cancer cell lines with […]

Caco-2 = test: MTT anticancer activity, Caco-2; assay type: cell-based, human; conditions: for IC50: Homo sapiens, Caco-2, 72 h, MTT, mean ± SEM
Text: as §1, §2, §3, §4, §5, §6, §7, §8, §9, §10, §11, §12, §13, §14

HepG-2 = test: MTT anticancer activity, HepG-2; assay type: cell-based, human; conditions: for IC50: Homo sapiens, HepG2, HepG-2, 72 h, MTT, mean ± SEM; for SI: ratio IC50 on normal cells (Wi-38) / IC50 on HepG-2
Text: as §1, §2, §3, §4, §5, §6, §7, §8
The anticancer effect of the above-mentioned compounds, in comparison with doxorubicin (Dox), was assayed using three human cancer cell lines. Colon cancer cell line (Caco-2) was cultured in DMEM (Lonza, USA) contained with 10 % FBS while liver cancer cell line (HepG-2) and triple-negative breast cancer cell line (MDA- MB 231) were cultured in RPMI-1640 (Lonza, U SA) supplemented with 10 % FBS. […]
compounds were incubated with three cancer cell lines for 72 h at 37 °C in a 5 % CO2 incubator. MTT method was done as described above. Plots of cancer cells viability (%) and growth inhibition (%) of the studied […]
as §10, §11, §12, §13, §14

[1] = test system: normal human lung fibroblasts (Wi-38); test: MTT cytotoxicity screening on normal human lung fibroblasts (Wi-38); assay type: cell-based; conditions: for IC50: Homo sapiens; for IC50 / EC100: Wi-38, 72 h, MTT, mean ± SEM; for EC100: concentration at 100% cell viability
Text: as §1, §2, §3, §4, §5, §6
microscope with a digital camera (Olympus, Japan). […]

MMP-2 = target: T1, MMP-2 (Homo sapiens, UniProt P08253); test: MMP-2 inhibitor screening kit (colorimetric); assay type: biochemical; conditions: in vitro MMP-2
T1 construct: read from the 'ab' catalogue number) ab139446
Protocol: VEGFR-2 inhibition was detected by VEGFR-2 (KDR) Kinase Assay Kit-BPS Bioscience Corporation catalog # 40325 [107]. MMP-2 inhibitory activities were evaluated utilizing MMP-2 inhibitor screening kit (Colorimetric) catalog # ab139446 [108]. CA II inhibition assay was performed as reported. The protocols are detailed in the Supplementary Materials.
2.4. MMP-2 inhibitory activity assay […]
inhibitor screening kit (Colorimetric) catalog # ab139446 following the manufacturer’s instructions. The assay uses a thiopeptide as a chromogenic substrate. The MMP cleavage site peptide bond is replaced by a thioester bond in the thiopeptide. Hydrolysis of this bond by MMP-2 produces a sulfhydryl group, which reacts with Ellman’s reagent to form 2-nitr o-5-thiobenzoic acid that can be detected by its absorbance at 412 nm. The pr ocedure of MMP -2 inhibiti on assay is as foll owing
- Add test compounds and diluted enzyme solution to the microplate wells.
- Simultaneously establish the following control wells.
- Vehicle control contains MMP enzyme and vehicle used in delivering test compound (DMSO, concentration […]
- bring the total volume of all controls to 50 µL. Pre-incubate the plate for 10 min. at assay temperature to 37°C.
- Run the enzymatic reaction. […]
inhibited), which were calculated from dose-response curve obtained using eight tested concentrations of the inhibitor and carried out in duplicate. […]

[2] = ratio IC50 on normal cells (Wi-38) / IC50 on Caco-2

T1 sequence (P08253 110-446 limits assumed): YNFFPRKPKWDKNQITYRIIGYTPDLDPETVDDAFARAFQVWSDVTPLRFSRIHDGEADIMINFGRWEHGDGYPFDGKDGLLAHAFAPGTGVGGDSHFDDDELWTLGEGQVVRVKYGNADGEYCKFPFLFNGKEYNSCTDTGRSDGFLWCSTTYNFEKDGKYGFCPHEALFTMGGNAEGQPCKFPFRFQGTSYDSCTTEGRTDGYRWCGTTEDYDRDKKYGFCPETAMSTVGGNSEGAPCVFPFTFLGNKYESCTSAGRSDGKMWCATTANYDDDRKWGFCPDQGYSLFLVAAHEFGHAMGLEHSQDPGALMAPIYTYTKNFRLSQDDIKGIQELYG

`Cc1cc(=O)[nH]c(NN=C[C@H](O)[C@@H](O)[C@H](O)[C@H](O)CO)n1` [Compound 3, D-Glucose-(6-methyl-4-oxo-2-pyrimidinyl)hydrazone] showed an IC50 (MDA-MB 231) of 75.8 ± 1.25 nM, an SI (MDA-MB 231) of 2.33 and an IC50 (Caco-2) of 96.49 ± 0.09 nM. The SI (Caco-2; [2]) was 1.83, the IC50 (HepG-2) was 3490 ± 182 nM and the SI (HepG-2) was 0.05. The IC50 [1] was 176 ± 4.14 nM, the EC100 [1] was 84.54 ± 1.00 nM and the melting point was 240 to 242 °C.
Compound `CC(=O)OC[C@@H](OC(C)=O)[C@@H](OC(C)=O)[C@H](OC(C)=O)[C@H](OC(C)=O)[C@@H]1N(C(C)=O)N(C(C)=O)c2nc(C)cc(=O)n21` [Compound 9, N^1,N^2-Diacetyl-3-(1,2,3,4,5-penta-O-acetyl-D-manno-pentitol-1-yl)-5-methyl-7-oxo-1,2,4-triazolo[4,3-a]pyrimidine] has a melting point of 100 to 102 °C.
`CC(=O)OCC(OC(C)=O)C(OC(C)=O)C(OC(C)=O)C1N(C(C)=O)N(C(C)=O)c2nc(C)cc(=O)n21` [Compound 6, N^1,N^2-Diacetyl-3-(1,2,3,4-tetra-O-acetyl-D-xylo-tetritol-1-yl)-7-methyl-5-oxo-1,2,4-triazolo[4,3-a]pyrimidine] showed an IC50 (MDA-MB 231) of 46.3 ± 3.32 nM, an SI (MDA-MB 231) of 12.69 and an IC50 (Caco-2) of 54.06 ± 0.47 nM. The SI (Caco-2; [2]) was 10.86, the IC50 (HepG-2) was 4628 ± 33 nM and the SI (HepG-2) was 0.13. For the same compound, the IC50 [1] was 587.1 ± 4.48 nM, the EC100 [1] was 353.7 ± 9.54 nM and the melting point was 112 to 114 °C.
`CC(=O)OCC(OC(C)=O)C(OC(C)=O)C(OC(C)=O)C(OC(C)=O)C1N(C(C)=O)N(C(C)=O)c2nc(C)cc(=O)n21` [Compound 7, N^1,N^2-Diacetyl-3-(1,2,3,4,5-penta-O-acetyl-D-galacto-pentitol-1-yl)-7-methyl-5-oxo-1,2,4-triazolo[4,3-a]pyrimidine] showed an IC50 (MDA-MB 231) of 39.99 ± 0.04 nM, an SI (MDA-MB 231) of 21.82 and an IC50 (Caco-2) of 47.44 ± 0.38 nM. It also gave an SI (Caco-2; [2]) of 18.39, an IC50 (HepG-2) of 3730 ± 252 nM and an SI (HepG-2) of 0.23. For the same compound, the IC50 [1] was 872 ± 16.3 nM, the EC100 [1] was 664.3 nM and 664.3 ± 26.60 nM and the melting point was 97 to 100 °C.
In the case of `Cc1cc(=O)[nH]c(NN=C[C@H](O)[C@@H](O)[C@H](O)CO)n1` [Compound 2, D-Xylose-(6-methyl-4-oxo-2-pyrimidinyl)hydrazone], the IC50 (MDA-MB 231) is reported as 100 ± 2.99 nM, the SI (MDA-MB 231) is reported as 0.93 and the IC50 (Caco-2) is reported as 128 ± 1.48 nM. It also gave an SI (Caco-2; [2]) of 0.73, an IC50 (HepG-2) of 3550 ± 35.5 nM and an SI (HepG-2) of 0.02. For the same compound, the IC50 [1] was 92.86 ± 0.35 nM, the EC100 [1] was 46.35 ± 1.35 nM and the melting point was 215 to 216 °C.
Work on `Cc1cc(=O)[nH]c(NN=C[C@@H](O)[C@@H](O)[C@H](O)[C@H](O)CO)n1` [Compound 4, D-Mannose-(6-methyl-4-oxo-2-pyrimidinyl)hydrazone] yielded an IC50 (MDA-MB 231) of 93.7 ± 2.69 nM, an SI (MDA-MB 231) of 1.37 and an IC50 (Caco-2) of 108.1 ± 0.62 nM. It also gave an SI (Caco-2; [2]) of 1.19, an IC50 (HepG-2) of 4940 ± 101 nM and an SI (HepG-2) of 0.03. For the same compound, the IC50 [1] was 128 ± 2.96 nM, the EC100 [1] was 64.61 ± 0.68 nM and the melting point was 220 to 222 °C.
`COc1cccc2c1C(=O)c1c(O)c3c(c(O)c1C2=O)C[C@@](O)(C(=O)CO)C[C@@H]3O[C@H]1C[C@H](N)[C@H](O)[C@H](C)O1` [Doxorubicin, doxorubicin, reference compound] gave an IC50 (MDA-MB 231) of 10.6 ± 0.1 nM, an SI (MDA-MB 231) of 2.83 and an SI (Caco-2) of 0.62. It also gave an IC50 (Caco-2) of 48.3 ± 30 nM, an IC50 (HepG-2) of 22.5 ± 10 nM and an SI (HepG-2) of 1.33. It also gave an IC50 [1] of 30 ± 1 nM, an EC100 [1] of 11.50 ± 0.50 nM and an EC100 ([1]; listed as Dox) of 11.5 nM. The “morphological alteration of treated cells” value ([1]; Wi-38 at 30 nM, phase-contrast microscopy) was “morphological damage”.
For `Cc1cc(=O)[nH]c(NN=C[C@H](O)[C@@H](O)[C@@H](O)[C@H](O)CO)n1` [Compound 5, D-Galactose-(6-methyl-4-oxo-2-pyrimidinyl)hydrazone], the IC50 (MDA-MB 231) was 83.3 ± 3.06 nM, the SI (MDA-MB 231) was 1.23 and the IC50 (Caco-2) was 111 ± 2.94 nM. The SI (Caco-2; [2]) was 0.92, the IC50 (HepG-2) was 3820 ± 126 nM and the SI (HepG-2) was 0.03. It also gave an IC50 [1] of 102 ± 1.25 nM, an EC100 [1] of 48.16 ± 1.66 nM and a melting point of 213 to 214 °C.
Work on `COc1ccc(S(=O)(=O)N(CC(=O)NO)CC(C)C)cc1` [NNGH, N-Isobutyl-N-(4-methoxyphenylsulfonyl)glycyl hydroxamic acid] yielded an IC50 (MMP-2) of 298 ± 20.2 nM.
